Results: US20250313574A1, “SIALIC ACID DERIVATIVES AND METHODS OF USING SAME” (EISAI R&D MANAGEMENT CO., LTD., priority 2022, published 2025)

How the values were obtained:
[1] = biological target: Recombinant Human Siglec-3/CD33 protein (His-CD33) (Homo sapiens (Human), UniProt P20138); experiment: Differential scanning fluorimetry (DSF) thermal shift assay; type: binding; settings: difference in thermal melt of CD33 protein (0.5 μM) with 50 μM compound
[2] = biological target: Recombinant human CD33 protein (Homo sapiens (Human), UniProt P20138); experiment: CD33 competitive binding assay for HTS drug screen (fluorescent multivalent sialic acid probe)
Sequence of Recombinant human CD33 protein (P20138 18-259): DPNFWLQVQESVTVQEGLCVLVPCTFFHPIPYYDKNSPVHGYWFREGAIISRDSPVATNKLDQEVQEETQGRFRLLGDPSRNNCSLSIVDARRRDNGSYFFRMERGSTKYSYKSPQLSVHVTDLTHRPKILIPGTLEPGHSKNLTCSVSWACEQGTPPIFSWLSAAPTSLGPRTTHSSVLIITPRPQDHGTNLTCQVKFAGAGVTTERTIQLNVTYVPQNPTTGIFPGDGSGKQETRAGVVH
Outline: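 Inhibition was read as reduced retention of a fluorescent multivalent sialic acid complex (final 5 μM neutravidin, 15 μM A-375, 5 μM biotin-4-FITC) on plate-immobilized human CD33. Compound was added first, the probe followed for 30 min at room temperature in PBS with 0.2% Tween-20 and 0.5% BSA, and FITC was measured after a wash.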

Sequence of Recombinant Human Siglec-3/CD33 protein (His-CD33) (P20138 18-259): as above

DSF (dTmD) [1] [°C]	EC50 [2] [µM]	SMILES
4.1	1.37	COCCC(=O)NCc1cccc(/C=C/C[C@]2(C(=O)O)C[C@H](O)[C@@H](NC(=O)Cn3cc(C4CCCCC4)nn3)[C@H]([C@H](O)[C@H](O)CNC(=O)c3cc(C)c(O)c(C)c3)O2)c1 [A-265]
6.2	1.38	CC(=O)N1CCC(C(=O)NCc2cccc(/C=C/C[C@]3(C(=O)O)C[C@H](O)[C@@H](NC(=O)Cn4cc(C5CCCCC5)nn4)[C@H]([C@H](O)[C@H](O)CNC(=O)c4cc(C)c(O)c(C)c4)O3)c2)CC1 [A-266]
3.8	9.17	Cc1cc(C(=O)NC[C@@H](O)[C@@H](O)[C@@H]2O[C@@](C/C=C/c3cccc(CNC(=O)C4CCCO4)c3)(C(=O)O)C[C@H](O)[C@H]2NC(=O)Cn2cc(C3CCCCC3)nn2)cc(C)c1O (stereo partly drawn) [A-267]
6.5	3.46	Cc1cc(C(=O)NC[C@@H](O)[C@@H](O)[C@@H]2O[C@@](C/C=C/c3cccc(CNC(=O)c4ccccc4C(F)(F)F)c3)(C(=O)O)C[C@H](O)[C@H]2NC(=O)Cn2cc(C3CCCCC3)nn2)cc(C)c1O [A-269]
6.0	2.8	Cc1cc(C(=O)NC[C@@H](O)[C@@H](O)[C@@H]2O[C@@](C/C=C/c3cccc(CNC(=O)c4cnccn4)c3)(C(=O)O)C[C@H](O)[C@H]2NC(=O)Cn2cc(C3CCCCC3)nn2)cc(C)c1O [A-270]
5.1	3.99	Cc1cc(C(=O)NC[C@@H](O)[C@@H](O)[C@@H]2O[C@@](C/C=C/c3cccc(CNC(=O)c4ccon4)c3)(C(=O)O)C[C@H](O)[C@H]2NC(=O)Cn2cc(C3CCCCC3)nn2)cc(C)c1O [A-271]
4.9	9.64	Cc1cc(C(=O)NC[C@@H](O)[C@@H](O)[C@@H]2O[C@@](C/C=C/c3cccc(CNC(=O)C4C5OCCC[C@H]54)c3)(C(=O)O)C[C@H](O)[C@H]2NC(=O)Cn2cc(C3CCCCC3)nn2)cc(C)c1O (stereo partly drawn) [A-272]
5.4	9.94	Cc1cc(C(=O)NC[C@@H](O)[C@@H](O)[C@@H]2O[C@@](C/C=C/c3cccc(CNC(=O)c4ccn(C)c(=O)c4)c3)(C(=O)O)C[C@H](O)[C@H]2NC(=O)Cn2cc(C3CCCCC3)nn2)cc(C)c1O [A-273]
5.7	4.7	Cc1cc(C(=O)NC[C@@H](O)[C@@H](O)[C@@H]2O[C@@](C/C=C/c3cccc(CNC(=O)CC4CCOCC4)c3)(C(=O)O)C[C@H](O)[C@H]2NC(=O)Cn2cc(C3CCCCC3)nn2)cc(C)c1O [A-274]
7.0	8.63	Cc1cc(C(=O)NC[C@@H](O)[C@@H](O)[C@@H]2O[C@@](C/C=C/c3cccc(CNC(=O)c4ccn(-c5ccccn5)n4)c3)(C(=O)O)C[C@H](O)[C@H]2NC(=O)Cn2cc(C3CCCCC3)nn2)cc(C)c1O [A-275]
6.2	2.92	Cc1cc(C(=O)NC[C@@H](O)[C@@H](O)[C@@H]2O[C@@](C/C=C/c3cccc(CNC(=O)c4scnc4C)c3)(C(=O)O)C[C@H](O)[C@H]2NC(=O)Cn2cc(C3CCCCC3)nn2)cc(C)c1O [A-276]
4.3	10.2	Cc1cc(C(=O)NC[C@@H](O)[C@@H](O)[C@@H]2O[C@@](C/C=C/c3cccc(CNC(=O)c4cn[nH]c4)c3)(C(=O)O)C[C@H](O)[C@H]2NC(=O)Cn2cc(C3CCCCC3)nn2)cc(C)c1O [A-277]
8.8	1.74	Cc1cc(C(=O)NC[C@@H](O)[C@@H](O)[C@@H]2O[C@@](C/C=C/c3cccc(CNC(=O)c4ccc5[nH]ccc5c4)c3)(C(=O)O)C[C@H](O)[C@H]2NC(=O)Cn2cc(C3CCCCC3)nn2)cc(C)c1O [A-278]
4.5	10.4	COc1cc(C(=O)NCc2cccc(/C=C/C[C@]3(C(=O)O)C[C@H](O)[C@@H](NC(=O)Cn4cc(C5CCCCC5)nn4)[C@H]([C@H](O)[C@H](O)CNC(=O)c4cc(C)c(O)c(C)c4)O3)c2)ccc1O [A-279]
3.8	4.9	Cc1cc(C(=O)NC[C@@H](O)[C@@H](O)[C@@H]2O[C@@](C/C=C/c3cccc(CNC(=O)c4ccc5[nH]cnc5c4)c3)(C(=O)O)C[C@H](O)[C@H]2NC(=O)Cn2cc(C3CCCCC3)nn2)cc(C)c1O [A-280]
6.9	1.52	Cc1cc(C(=O)NC[C@@H](O)[C@@H](O)[C@@H]2O[C@@](C/C=C/c3cccc(CNC(=O)C4CCC(NS(C)(=O)=O)CC4)c3)(C(=O)O)C[C@H](O)[C@H]2NC(=O)Cn2cc(C3CCCCC3)nn2)cc(C)c1O (stereo partly drawn) [A-281]
6.2	1.68	Cc1cc(C(=O)NC[C@@H](O)[C@@H](O)[C@@H]2O[C@@](C/C=C/c3cccc(CNC(=O)C4CCC[C@H](NS(C)(=O)=O)C4)c3)(C(=O)O)C[C@H](O)[C@H]2NC(=O)Cn2cc(C3CCCCC3)nn2)cc(C)c1O (stereo partly drawn) [A-282]
2.1	102	Cc1cc(C(=O)NC[C@@H](O)[C@@H](O)[C@@H]2O[C@@](C/C=C/c3ccccc3)(C(=O)O)C[C@H](O)[C@H]2NC(=O)Cn2cc(C3CCCCC3)nn2)cc(C)c1O [A-283]

DSF (dTmD) [1] [°C]	EC50 [2] [µM]	SMILES
6.8	1.66	Cc1cc(C(=O)NC[C@@H](O)[C@@H](O)[C@@H]2O[C@@](C/C=C/c3ccc4c(c3)C(NC(=O)C3CCCOC3)CC4)(C(=O)O)C[C@H](O)[C@H]2NC(=O)Cn2cc(C3CCCCC3)nn2)cc(C)c1O (stereo partly drawn) [A-284]
9.0	9.98	Cc1cc(C(=O)NC[C@@H](O)[C@@H](O)[C@@H]2O[C@@](C/C=C/c3cccc(CNC(=O)OC(C)(C)C)c3)(C(=O)O)C[C@H](O)[C@H]2NC(=O)Cn2cc(C3CCCCC3)nn2)cc(C)c1O [A-285]
2.2	2.84	Cc1ccc(CNC(=O)C2CCCOC2)cc1/C=C/C[C@]1(C(=O)O)C[C@H](O)[C@@H](NC(=O)Cn2cc(C3CCCCC3)nn2)[C@H]([C@H](O)[C@H](O)CNC(=O)c2cc(C)c(O)c(C)c2)O1 (stereo partly drawn) [A-286]
6.0	1.16	Cc1ccc(CN(C)C(=O)C2CCCOC2)cc1/C=C/C[C@]1(C(=O)O)C[C@H](O)[C@@H](NC(=O)Cn2cc(C3CCCCC3)nn2)[C@H]([C@H](O)[C@H](O)CNC(=O)c2cc(C)c(O)c(C)c2)O1 (stereo partly drawn) [A-287]
5.3	2.68	CC(=O)N[C@H]1[C@H]([C@H](O)[C@H](O)CNC(=O)c2cc(C)c(O)c(C)c2)O[C@@](C/C=C/c2ccccc2CNC(=O)OC(C)(C)C)(C(=O)O)C[C@@H]1O [A-288]
5.3	2.68	CC(=O)N[C@H]1[C@H]([C@H](O)[C@H](O)CNC(=O)c2cc(C)c(O)c(C)c2)O[C@@](C/C=C/c2cc(CNC(=O)C3CCCOC3)ccc2C)(C(=O)O)C[C@@H]1O (stereo partly drawn) [A-289]
2.0	20.4	CC(=O)N[C@H]1[C@H]([C@H](O)[C@H](O)CNC(=O)c2cc(C)c(O)c(C)c2)O[C@@](C/C=C/c2cc(CNC(=O)C3CCCOC3)ccc2C)(C(=O)O)C[C@@H]1O (stereo partly drawn) [A-290]
2.9	4.3	CC(=O)N[C@H]1[C@H]([C@H](O)[C@H](O)CNC(=O)c2cc(C)c(O)c(C)c2)O[C@@](C/C=C/c2cccc(-c3cc(N)on3)c2)(C(=O)O)C[C@@H]1O [A-291]
4.0	3.02	CC(=O)N[C@H]1[C@H]([C@H](O)[C@H](O)CNC(=O)c2cc(C)c(O)c(C)c2)O[C@@](C/C=C/c2cccc(CN(C)C(=O)C3CCCOC3)c2)(C(=O)O)C[C@@H]1O (stereo partly drawn) [A-292]
4.2	7.94	CC(=O)N[C@H]1[C@H]([C@H](O)[C@H](O)CNC(=O)c2cc(C)c(O)c(C)c2)O[C@@](C/C=C/c2cccc(CNC(=O)C3CCCOC3)c2)(C(=O)O)C[C@@H]1O (stereo partly drawn) [A-293]
4.2	4.61	CC(=O)N[C@H]1[C@H]([C@H](O)[C@H](O)CNC(=O)c2cc(C)c(O)c(C)c2)O[C@@](C/C=C/c2cnc(CNC(=O)C3CCCOC3)s2)(C(=O)O)C[C@@H]1O (stereo partly drawn) [A-294]
4.0	6.64	CC(=O)N[C@H]1[C@H]([C@H](O)[C@H](O)CNC(=O)c2cc(C)c(O)c(C)c2)O[C@@](C/C=C/c2cccc(C3CCCN3C(=O)OC(C)(C)C)c2)(C(=O)O)C[C@@H]1O (stereo partly drawn) [A-295]
6.4	0.477	CC(=O)N[C@H]1[C@H]([C@H](O)[C@H](O)CNC(=O)c2cc(C)c(O)c(C)c2)O[C@@](CC2OC(C)(C)O[C@H]2c2cccc(NC(=O)OC(C)(C)C)c2)(C(=O)O)C[C@@H]1O (stereo partly drawn) [A-296]
8.0	0.512	Cc1cc(C(=O)NC[C@@H](O)[C@@H](O)[C@@H]2O[C@@](CC3OC(C)(C)O[C@H]3c3cccc(NC(=O)OC(C)(C)C)c3)(C(=O)O)C[C@H](O)[C@H]2NC(=O)Cn2cc(C3CCCCC3)nn2)cc(C)c1O (stereo partly drawn) [A-299]
1.6	44.6	Cc1cc(C(=O)NC[C@@H](O)[C@@H](O)[C@@H]2O[C@@](CC(O)[C@@H](O)c3cccc(NC(=O)OC(C)(C)C)c3)(C(=O)O)C[C@H](O)[C@H]2NC(=O)Cn2cc(C3CCCCC3)nn2)cc(C)c1O (stereo partly drawn) [A-300]
3.5	5.26	Cc1cc(C(=O)NC[C@@H](O)[C@@H](O)[C@@H]2O[C@@](CC3OC(C)(C)O[C@H]3c3cccc(CNC(=O)OC(C)(C)C)c3)(C(=O)O)C[C@H](O)[C@H]2NC(=O)Cn2cc(C3CCCCC3)nn2)cc(C)c1O (stereo partly drawn) [A-301]
4.9	1.5	CC(=O)N[C@H]1[C@H]([C@H](O)[C@H](O)CNC(=O)c2cc(C)c(O)c(C)c2)O[C@@](CC2OC(C)(C)O[C@H]2c2cccc(NC(=O)c3ccc4cc[nH]c4c3)c2)(C(=O)O)C[C@@H]1O (stereo partly drawn) [A-302]

SMILES	DSF (dTmD) [1] [°C]	EC50 [2] [µM]
Cc1cc(C(=O)NC[C@@H](O)[C@@H](O)[C@@H]2O[C@@](C/C=C/c3cccc(CNC(=O)C4CCCOC4)c3)(C(=O)O)C[C@H](O)[C@H]2NC(=O)Cn2cc(C3CCCCC3)nn2)cc(C)c1O (stereo partly drawn) [A-268]	6.2	1.32
